Drawing on patent US20210355121A1, “FUSED TRICYCLIC KRAS INHIBITORS” (Incyte Corporation, priority 2020, published 2021), this text covers IC50 for 17 molecules.

Structures are written as SMILES. A value given as a limit tells only on which side of the number the result lay.

One assay deals with KRAS G12V (Homo sapiens, UniProt P01116, G12V). Put plainly: KRAS G12V GDP-GTP exchange assay (bodipy-GDP for GppNHp, with SOS1). Type of assay: biochemical. To be noted: 2.5 nM bodipy loaded KRAS G12V, 3 hours after GppNHp-SOS1; read-out: G12V_exchange (KRAS_G12V exchange assay IC50). How it is done:
(§1) The inhibitor potency of the exemplified compounds was determined in a fluorescence based guanine nucleotide exchange assay, which measures the exchange of bodipy-GDP (fluorescently labeled GDP) for GppNHp (Non-hydrolyzable GTP analog) to generate the active state of KRAS in the presence of SOS1 (guanine nucleotide exchange factor). Inhibitors were serially diluted in DMSO and a volume of 0.1 μL was transferred to the wells of a black low volume 384-well plate. 5 μL/well volume of bodipy-loaded KRAS G12C diluted to 5 nM in assay buffer (25 mM Hepes pH 7.5, 50 mM NaCl, 10 mM MgCl2 and 0.01% Brij-35) was added to the plate and pre-incubated with inhibitor for 2 hours at ambient temperature. Appropriate controls (enzyme with no inhibitor or with a G12C inhibitor (AMG-510)) were included on the plate. The exchange was initiated by the addition of a 5 μL/well volume containing 1 mM GppNHp and 300 nM SOS1 in assay buffer. The 10 μL/well reaction concentration of the bodipy-loaded KRAS G12C, GppNHp, and SOS1 were 2.5 nM, 500 uM, and 150 nM, respectively. The reaction plates were incubated at ambient temperature for 2 hours, a time estimated for complete GDP-GTP exchange in the absence of inhibitor. For the KRAS G12D and G12V mutants, similar guanine nucleotide exchange assays were used with 2.5 nM as final concentration for the bodipy loaded KRAS proteins and with 4 hours and 3 hours incubation after adding GppNHp-SOS1 mixture for G12D and G12V respectively. A cyclic peptide described to selectively bind G12D mutant (Sakamoto et al., BBRC 484.3 (2017), 605-611) or internal compounds with confirmed binding were used as positive controls in the assay plates. Fluorescence intensities were measured on a PheraStar plate reader instrument (BMG Labtech) with excitation at 485 nm and emission at 520 nm.
(§2) Either GraphPad prism or XLfit was used to analyze the data. The IC50 values were derived by fitting the data to a four parameter logistic equation producing a sigmoidal dose-response curve with a variable Hill coefficient. Prism equation: Y=Bottom+(Top−Bottom)/(1+10^((Log IC50−X)*Hill slope)); XLfit equation: Y=(A+((B−A)/(1+((X/C)^D)))) where X is the logarithm of inhibitor concentration and Y is the response.

The target of a further assay is KRAS G12D (Homo sapiens, UniProt P01116, G12D). In words: KRAS G12D GDP-GTP exchange assay (bodipy-GDP for GppNHp, with SOS1). It counts as biochemical. To be noted: 2.5 nM bodipy loaded KRAS G12D, 4 hours after GppNHp-SOS1; read-out: G12D_exchange (KRAS_G12D exchange assay IC50). How it is done: as §1, §2
KRAS G12D, sequence (P01116 1-188 isoform P01116-2 G12D): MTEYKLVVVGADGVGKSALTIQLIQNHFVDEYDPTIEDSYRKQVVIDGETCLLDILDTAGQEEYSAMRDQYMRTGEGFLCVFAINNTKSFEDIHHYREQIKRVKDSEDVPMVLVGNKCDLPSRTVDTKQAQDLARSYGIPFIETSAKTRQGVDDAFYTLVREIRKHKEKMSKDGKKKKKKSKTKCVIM

KRAS G12V, sequence (P01116 1-188 isoform P01116-2 G12V): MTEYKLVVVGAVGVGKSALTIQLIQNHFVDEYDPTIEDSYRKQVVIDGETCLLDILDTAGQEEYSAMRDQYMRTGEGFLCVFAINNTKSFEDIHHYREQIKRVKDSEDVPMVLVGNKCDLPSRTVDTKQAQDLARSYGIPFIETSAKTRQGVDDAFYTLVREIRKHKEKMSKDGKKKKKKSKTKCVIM

As usually defined, the IC50 is the concentration that inhibits the measured activity by half. Turning to `COC(=O)CCc1cc2c(OC[C@@H]3CCCN3C)nc3c(F)c(-c4cc(O)cc5ccccc45)c(CCC#N)cc3c2n1C1C2CNC1C2` (single isomer, unassigned) [Example 29], the IC50 at KRAS G12V and at KRAS G12D was at most 100 nM each time.
On to `CN(C)C(=O)CCc1cc2c(OC[C@@H]3CCCN3C)nc3c(F)c(-c4cc(O)cc5ccccc45)c(CCC#N)cc3c2n1C1C2CNC1C2` (stereo partly drawn) [Example 30, 3-(1-(2-azabicyclo[2.1.1]hexan-5-yl)-8-(2-cyanoethyl)-6-fluoro-7-(3-hydroxynaphthalen-1-yl)-4-(((S)-1-methylpyrrolidin-2-yl)methoxy)-1H-pyrrolo[3,2-c]quinolin-2-yl)-N,N-dimethylpropanamide], for which the IC50 at KRAS G12V and on KRAS G12D was at most 100 nM each time.
`CCCc1cc2c(OC[C@@H]3CCCN3C)nc3c(F)c(-c4cc(O)cc5ccccc45)c(CCC#N)cc3c2n1C1C2CNC1C2` (stereo partly drawn) [Example 31, 3-(1-(2-azabicyclo[2.1.1]hexan-5-yl)-6-fluoro-7-(3-hydroxynaphthalen-1-yl)-4-(((S)-1-methylpyrrolidin-2-yl)methoxy)-2-propyl-1H-pyrrolo[3,2-c]quinolin-8-yl)propanenitrile]: the IC50 at KRAS G12V and at KRAS G12D was at most 100 nM each time.
Consider `CN1CCC[C@H]1COc1nc2c(F)c(-c3cc(O)cc4ccccc34)c(CCC#N)cc2c2c1cc(-c1cnn(C)c1)n2C1C2CNC1C2` (stereo partly drawn) [Example 32, 3-(1-(2-azabicyclo[2.1.1]hexan-5-y1)-6-fluoro-7-(3-hydroxynaphthalen-1-y1)-2-(1-methyl-1H-pyrazol-4-y1)-4-(((S)-1-methylpyrrolidin-2-yl)methoxy)-1H-pyrrolo[3,2-c]quinolin-8-yl)propanenitrile], for which the IC50 at KRAS G12V and on KRAS G12D was at most 100 nM throughout.
With `CN1CCC[C@H]1COc1nc2c(F)c(-c3cc(O)cc4ccccc34)c(CCC#N)cc2c2c1ccn2C1C2CNC1C2` (stereo partly drawn) [Example 33, 3-(1-(2-azabicyclo[2.1.1]hexan-5-yl)-6-fluoro-7-(3-hydroxynaphthalen-1-yl)-4-(((S)-1-methylpyrrolidin-2-yl)methoxy)-1H-pyrrolo[3,2-c]quinolin-8-yl)propanenitrile], the IC50 was 100 to 1000 nM on KRAS G12V and at most 100 nM at KRAS G12D.
The corresponding values for `CN1CCC[C@H]1COc1nc2c(F)c(-c3cc(O)cc4ccccc34)c(CCC#N)cc2c2c1c(-c1ccccc1)cn2C1C2CNC1C2` (stereo partly drawn) [Example 34, 3-(1-(2-azabicyclo[2.1.1]hexan-5-yl)-6-fluoro-7-(3-hydroxynaphthalen-1-yl)-4-(((S)-1-methylpyrrolidin-2-yl)methoxy)-3-phenyl-1H-pyrrolo[3,2-c]quinolin-8-yl)propanenitrile] are 1000 to 5000 nM and 100 to 1000 nM.
Consider `CN1CCC[C@H]1COc1nc2c(F)c(-c3cc(O)cc4ccccc34)c(CCC#N)cc2c2c1c(-c1cccnc1)cn2C1C2CNC1C2` (stereo partly drawn) [Example 35, 3-(1-(2-azabicyclo[2.1.1]hexan-5-yl)-6-fluoro-7-(3-hydroxynaphthalen-1-yl)-4-(((S)-1-methylpyrrolidin-2-yl)methoxy)-3-(pyridin-3-yl)-1H-pyrrolo[3,2-c]quinolin-8-yl)propanenitrile], for which the half-inhibitory concentration (IC50) is 100 to 1000 nM at KRAS G12V and at most 100 nM on KRAS G12D.
The corresponding values for `Cc1ncc(-c2cn(C3C4CNC3C4)c3c2c(OC[C@@H]2CCCN2C)nc2c(F)c(-c4cc(O)cc5ccccc45)c(CCC#N)cc23)o1` (stereo partly drawn) [Example 36, 3-(1-(2-azabicyclo[2.1.1]hexan-5-yl)-6-fluoro-7-(3-hydroxynaphthalen-1-yl)-3-(2-methyloxazol-5-yl)-4-(((S)-1-methylpyrrolidin-2-yl)methoxy)-1H-pyrrolo[3,2-c]quinolin-8-yl)propanenitrile] are 100 to 1000 nM and at most 100 nM.
The like results for `Cc1ncc(-c2cn(C3C4CNC3C4)c3c2c(OC[C@@H]2CCCN2C)nc2c(F)c(-c4cc(O)cc5ccccc45)c(CCC#N)cc23)s1` (stereo partly drawn) [Example 37, 3-(1-(2-azabicyclo[2.1.1]hexan-5-yl)-6-fluoro-7-(3-hydroxynaphthalen-1-yl)-4-(((S)-1-methylpyrrolidin-2-yl)methoxy)-3-(2-methylthiazol-5-yl)-1H-pyrrolo[3,2-c]quinolin-8-yl)propanenitrile] were, in that order, 100 to 1000 nM and at most 100 nM.
The like results for `CN1CCC[C@H]1COc1nc2c(F)c(-c3cc(O)cc4ccccc34)c(CCC#N)cc2c2c1c(-c1cnn(C)c1)cn2C1C2CNC1C2` (stereo partly drawn) [Example 38, 3-(1-(2-azabicyclo[2.1.1]hexan-5-yl)-6-fluoro-7-(3-hydroxynaphthalen-1-yl)-3-(1-methyl-1H-pyrazol-4-yl)-4-(((S)-1-methylpyrrolidin-2-yl)methoxy)-1H-pyrrolo[3,2-c]quinolin-8-yl)propanenitrile] were, in that order, 100 to 1000 nM and at most 100 nM.
On to `CN1CCC[C@H]1COc1nc2c(F)c(-c3cc(O)cc4ccccc34)c(CCC#N)cc2c2c1cc(-c1ccn(C)n1)n2C1C2CNC1C2` (stereo partly drawn) [Example 39, 3-(1-(2-azabicyclo[2.1.1]hexan-5-yl)-6-fluoro-7-(3-hydroxynaphthalen-1-yl)-2-(1-methyl-1H-pyrazol-3-yl)-4-(((S)-1-methylpyrrolidin-2-yl)methoxy)-1H-pyrrolo[3,2-c]quinolin-8-yl)propanenitrile], for which the IC50 on KRAS G12V and on KRAS G12D was at most 100 nM in each case.
With `CN1CCC[C@H]1COc1nc2c(F)c(-c3cc(O)cc4ccccc34)c(CCC#N)cc2c2c1cc(Cc1ccccc1)n2C1C2CNC1C2` (stereo partly drawn) [Example 40, 3-(2-benzyl-1-(2-azabicyclo[2.1.1]hexan-5-yl)-6-fluoro-7-(3-hydroxynaphthalen-1-yl)-4-(((S)-1-methylpyrrolidin-2-yl)methoxy)-1H-pyrrolo[3,2-c]quinolin-8-yl)propanenitrile], the IC50 on KRAS G12V was in the range of 1000 to 5000 nM; at KRAS G12D, 100 to 1000 nM.
For `CN1CCC[C@H]1COc1nc2c(F)c(-c3cc(O)cc4ccccc34)c(CCC#N)cc2c2c1c(-c1cn[nH]c1)cn2C1C2CNC1C2` (stereo partly drawn) [Example 41, 3-(1-(2-azabicyclo[2.1.1]hexan-5-yl)-6-fluoro-7-(3-hydroxynaphthalen-1-yl)-4-(((S)-1-methylpyrrolidin-2-yl)methoxy)-3-(1H-pyrazol-4-yl)-1H-pyrrolo[3,2-c]quinolin-8-yl)propanenitrile], the IC50 on KRAS G12V and on KRAS G12D was at most 100 nM in each case.
With `CN1CCC[C@H]1COc1nc2c(F)c(-c3cc(O)cc4ccccc34)c(CCC#N)cc2c2c1c(-c1ccc(=O)[nH]c1)cn2C1C2CNC1C2` (stereo partly drawn) [Example 42, 3-(1-(2-azabicyclo[2.1.1]hexan-5-yl)-6-fluoro-7-(3-hydroxynaphthalen-1-yl)-4-(((S)-1-methylpyrrolidin-2-yl)methoxy)-3-(6-oxo-1,6-dihydropyridin-3-yl)-1H-pyrrolo[3,2-c]quinolin-8-yl)propanenitrile], the 50% inhibitory concentration (IC50) on KRAS G12V is 100 to 1000 nM; on KRAS G12D it was at most 100 nM.
For `CN1CCC[C@H]1COc1nc2c(F)c(-c3cc(O)cc4ccccc34)c(CCC#N)cc2c2c1c(Cl)cn2C1C2CNC1C2` (stereo partly drawn) [Example 43, 3-(1-(2-azabicyclo[2.1.1]hexan-5-yl)-3-chloro-6-fluoro-7-(3-hydroxynaphthalen-1-yl)-4-(((S)-1-methylpyrrolidin-2-yl)methoxy)-1H-pyrrolo[3,2-c]quinolin-8-yl)propanenitrile], the IC50 at KRAS G12V is 100 to 1000 nM; at KRAS G12D, at most 100 nM.
`CN1CCC[C@H]1COc1nc2c(F)c(-c3cc(O)cc4ccccc34)c(CCC#N)cc2c2c1c(C(=O)NCCO)cn2C1C2CNC1C2` (stereo partly drawn) [Example 44, 1-(2-azabicyclo[2.1.1]hexan-5-yl)-8-(2-cyanoethyl)-6-fluoro-N-(2-hydroxyethyl)-7-(3-hydroxynaphthalen-1-yl)-4-(((S)-1-methylpyrrolidin-2-yl)methoxy)-1H-pyrrolo[3,2-c]quinoline-3-carboxamide]: the results for the concentration for half-maximal inhibition (IC50) at KRAS G12V and on KRAS G12D were 100 to 1000 nM and at most 100 nM, respectively.
The like results for `CN1CCC[C@H]1COc1nc2c(F)c(-c3cc(O)cc4ccccc34)c(CCC#N)cc2c2c1c(C(=O)NCc1ccccc1)cn2C1C2CNC1C2` (stereo partly drawn) [Example 45, N-Benzyl-1-(2-azabicyclo[2.1.1]hexan-5-yl)-8-(2-cyanoethyl)-6-fluoro-7-(3-hydroxynaphthalen-1-yl)-4-(((S)-1-methylpyrrolidin-2-yl)methoxy)-1H-pyrrolo[3,2-c]quinoline-3-carboxamide] were, in that order, 100 to 1000 nM and at most 100 nM.
